Test results as given in ChEMBL document CHEMBL3612026, “Biological activity of N(4)-boronated derivatives of 2'-deoxycytidine, potential agents for boron-neutron capture therapy” (Bioorg Med Chem, 2015).
Active and inactive are the calls of the source. The calls are words filed in the database; no cut-off is given here.

Columns and labels:
[1] = Cytotoxicity against human SCC15 cells after 48 hrs by neutral red assay; assay type: functional, cell-based; conditions: SCC-15, 48 h
[2] = test system: BJ; assay: Cytotoxicity against human BJ cells after 48 hrs by XTT assay; assay type: cell-based
[3] = test system: SCC-15; assay: Binding affinity to DNA in human SCC-15 cells at 1 mM after 5 days by laser desorption/ionization mass spectrometric analysis; assay type: cell-based
[4] = test system: BJ; assay: Cytotoxicity against human BJ cells after 48 hrs by neutral red assay; assay type: cell-based
[5] = test system: SCC-15; assay: Induction of apoptosis in human SCC15 cells assessed as induction of […] fragmentation at 20 to 40 mM after 48 hrs by DAPI staining-based fluorescence assay; assay type: functional, cell-based
[6] = test system: BJ; assay: Induction of apoptosis in human BJ cells assessed as induction of […] fragmentation at 5 to 40 mM after 48 hrs by DAPI staining-based fluorescence assay; assay type: cell-based; conditions: 40000 µM
[7] = test system: BJ; assay: Induction of apoptosis in human BJ cells assessed as induction of […] fragmentation at 20 to 40 mM after 48 hrs by DAPI staining-based laser scanning confocal microscopic analysis; assay type: cell-based; conditions: 40000 µM
[8] = Cytotoxicity against human SCC15 cells after 48 hrs by XTT assay; assay type: functional, cell-based; conditions: SCC-15, 48 h
[9] = test system: SCC-15; assay: Induction of apoptosis in human SCC15 cells assessed as induction of […] fragmentation at 20 to 40 mM after 48 hrs by DAPI staining-based laser scanning confocal microscopic analysis; assay type: functional, cell-based

Q: Which results are given for `CC1(C)OB(CNc2ccn([C@H]3C[C@@H](O)[C@@H](CO)O3)c(=O)n2)OC1(C)C`?
A: IC50 [1]: 16.4 mM; IC50 [2]: 45.1 mM; Activity [3]: Active; IC50 [4]: 49.5 mM; Activity [5]: Active; Activity [6]: Non-toxic; Activity [7]: Non-toxic; IC50 [8]: 18.8 mM; Activity [9]: Active
